Test results from PubChem BioAssay (NCI).
“And” between values parts separate entries of the source, which are not always exact repeats. Equal entries are not always repeated.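 Results reflect a 48-hour exposure of cells in 96-well plates to compound at five concentrations. GI50 is the concentration that inhibits growth by half. TGI marks complete inhibition of growth.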 *1 amine or outer side, *2 acyl side, *3 side chain or, on linkers, in order; H or OH if unused. Where a SMILES comes first, the peptide text is derived from it. [ ]: non-standard residue; d: D form. X56 = CC[C@H](C)[C@H](OC(=O)[C@@H](C)[C@@H](CC)N[*:1])C(=O)[*:2]; X32 = C[C@H](N[*:1])C(=O)C(C)(C)C(=O)[*:2]; NMeY = CN[C@@H](Cc1ccc(O)cc1)C(=O)O; NMeL = CN[C@@H](CC(C)C)C(=O)O; NMeV = CN[C@H](C(=O)O)C(C)C

Tests used:
Assay in all cases: growth of human tumour cells (NCI), 48 h
PC-3 prostate = tested on: PC-3 prostate
NCI/ADR-RES ovarian = tested on: NCI/ADR-RES ovarian
MDA-MB-435 = tested on: MDA-MB-435
NCI-H23 lung = tested on: NCI-H23 lung
SK-MEL-28 melanoma = tested on: SK-MEL-28 melanoma
A498 renal = tested on: A498 renal
MCF7 breast = tested on: MCF7 breast
A549 NSCLC = tested on: A549 NSCLC
SNB-19 CNS = tested on: SNB-19 CNS
OVCAR-8 ovarian = tested on: OVCAR-8 ovarian

Row | Structure (SMILES) | TGI (PC-3 prostate) [µM] | TGI (NCI/ADR-RES ovarian) [µM] | TGI (MDA-MB-435) [µM] | TGI (NCI-H23 lung) [µM] | TGI (SK-MEL-28 melanoma) [µM] | TGI (A498 renal) | TGI (MCF7 breast) [µM] | TGI (A549 NSCLC) | TGI (SNB-19 CNS) | TGI (OVCAR-8 ovarian) [µM] | GI50 (PC-3 prostate) [µM] | GI50 (NCI/ADR-RES ovarian) [µM] | GI50 (MDA-MB-435) [µM] | GI50 (NCI-H23 lung) [µM] | GI50 (SK-MEL-28 melanoma) | GI50 (A498 renal) [µM] | GI50 (MCF7 breast) [µM] | GI50 (A549 NSCLC) [µM] | GI50 (SNB-19 CNS) [µM] | GI50 (OVCAR-8 ovarian) [µM]
1 | Nc1nc(-c2cccc([N+](=O)[O-])c2)cc(-c2cc(-c3cccc([N+](=O)[O-])c3)nc(N)n2)n1 | > 100 | > 100 | > 100 | > 100 | > 100 | > 100 µM | > 100 | > 100 µM | > 100 µM | > 100 |  |  |  |  |  |  |  |  |  | 
2 | CC(=O)OC1Oc2ccccc2-c2oc(=O)c(-c3cc4ccccc4oc3=O)cc21 (centres undefined) | > 100 | 51.3 | 79.6 | 52.4 | 87.3 | 43.9 µM | 34.1 | 33 µM | 32.4 µM | 36.7 | 29.1 | 22.5 | 22.3 | 24 | 32.7 µM | 18.8 | 15.3 | 15.4 | 17 | 17.8
3 | CC[C@H](C)[C@@H]1OC(=O)[C@@H](C)[C@@H](CC)NC(=O)[C@H](C)NC(=O)C(C)(C)C(=O)[C@H](C)NC(=O)[C@H](Cc2ccc(OC)cc2)N(C)C(=O)[C@H](C(C)C)N(C)C(=O)CNC(=O)[C@H](CC(C)C)N(C)C(=O)CNC1=O (cyclo(A[X56]G[NMeL]G[NMeV][NMeY](Me)[X32])) | 6.85 | 9.92 | 2.47 | 3.66 | 0.165 | 1.38 µM and 0.197 µM | 1.26 | 3.19 µM and 6.15 µM | 0.492 µM and 0.688 µM | 1.45 |  |  |  | 0.367 | 0.0727 µM and < 0.0164 µM | 0.0398 |  |  | 0.211 | 0.0335
4 | O=C(COc1cccc(/C=C2\CSc3ccccc3C2=O)c1)c1ccc(Cl)cc1 | 5.25 | 7.33 | 3.44 | 4.15 | 3.46 | 8.69 µM | 1.81 | 65.6 µM | 9.38 µM | 6.81 | 2.01 | 2.66 | 1.64 | 1.92 | 1.78 µM | 3.95 | 0.458 | 11.8 | 3.18 | 2.53
5 | Nc1ncnc2c1cnn2Cc1ccc(Cl)cc1 | > 100 | > 100 | > 100 | > 100 | > 100 | 68.6 µM | > 100 | > 100 µM | > 100 µM | > 100 |  |  |  |  | 74.8 µM |  |  |  |  | 
6 | C=C1C(=O)O[C@H]2[C@H]1CC/C(COC(=O)c1ccccc1)=C\CC[C@@]1(C)O[C@@H]21 | 4.34 | 9.05 | 3.24 | 4.16 | 3.71 | 30.8 µM | 2.04 | 13 µM | 11.6 µM | 9.28 | 1.8 | 2.67 | 1.34 | 1.82 | 1.74 µM | 16.8 | 0.497 | 3.33 | 2.61 | 2.28
7 | Cc1cc(=O)oc2cc(OS(C)(=O)=O)ccc12 | > 100 | > 100 | > 100 | > 100 | > 100 | > 100 µM | > 100 | > 100 µM | > 100 µM | > 100 |  |  |  |  |  |  |  |  |  | 
8 | C/C(=N\N=C(N)N)C(CN(C)C)C(c1ccccc1)c1c(O)c2ccccc2oc1=O (centres undefined) | > 100 | > 100 | > 100 | > 100 | > 100 | > 100 µM | > 100 | > 100 µM | > 100 µM | > 100 |  |  |  |  |  |  |  |  |  | 
9 | NC1CCC(N[C@@H]2C[C@H]2c2ccccc2)CC1 (some centres undefined) | > 100 | > 100 | > 100 | > 100 | > 100 | > 100 µM | > 100 | > 100 µM | > 100 µM | > 100 | 70.8 | > 100 | 48.4 | > 100 | > 100 µM | 21.4 | > 100 | > 100 | > 100 | > 100
10 | O=C(Nc1cccc(-n2cc(-c3ccncc3)c(-c3ccc(O)c(Cl)c3)n2)c1)Nc1cccc(C(F)(F)F)c1 | 8.96 | > 100 | 4.65 | 8.81 | 6.18 | 8.99 µM | 6.59 | 8.09 µM | 46.2 µM | 11.1 | 2.47 | 3.24 | 1.82 | 2.59 | 1.95 µM | 1.9 | 2.15 | 1.93 | 2.88 | 2.41
11 | CCOC(=O)c1cc(C(=O)c2cc(OC)c(OC)c(OC)c2)n2ccccc12 | > 100 | 2.75 | 0.205 | > 100 | > 100 | 9.55 µM | > 100 | > 100 µM | > 100 µM | > 100 | 0.105 | 0.0523 | < 0.0182 | 0.34 | 6.09 µM | 0.0269 | 0.0606 | 0.134 | 0.206 | 0.259
12 | COc1ccc(OC)c2c(=S)c3ccccc3[nH]c12 | > 100 | > 100 | > 100 | > 100 | > 100 | > 100 µM | > 100 | > 100 µM | > 100 µM | > 100 |  |  |  |  |  |  |  |  |  | 
13 | N#C/C(=C\c1ccc(Br)cc1)n1nnc2ccccc21 | 2.3 | 11 | 0.438 | 4.2 | 3.54 | 4.37 µM | 6.2 | 15 µM | 2.41 µM | 13.6 | 0.47 | 0.323 | 0.191 | 1.44 | 0.94 µM | 1.71 | 0.303 | 0.808 | 0.763 | 0.788
14 | COc1ccc(N(/C=C/C(=O)C(F)(F)F)CC(=O)c2ccc(Cl)c(Cl)c2)cc1 | 28.3 | 39.3 | 25.4 | 32.3 | 79.4 | 22.2 µM | 28.9 | 68 µM |  | 36.6 | 8.33 | 19 | 12.1 | 17.5 | 28.1 µM | 10.1 | 5.11 | 17.7 |  | 13.2
